ChEMBL document CHEMBL3351469, “Structure-activity relationships (SAR) and structure-kinetic relationships (SKR) of bicyclic heteroaromatic acetic acids as potent CRTh2 antagonists III: the role of a hydrogen-bond acceptor in long receptor residence times” (Bioorg Med Chem Lett, 2014)

How the values were obtained:
[1] = molecular target: T1, Prostaglandin D2 receptor 2 (Homo sapiens, UniProt Q9Y5Y4); assay: Antagonist activity at CRTh2 (unknown origin) stably expressed in PGD2-stimulated CHO.K1 cells preincubated for 1 hr by radio-labelled [35S]-GTPgammaS binding assay; type: functional, cell-based
T1 sequence (Q9Y5Y4 whole entry): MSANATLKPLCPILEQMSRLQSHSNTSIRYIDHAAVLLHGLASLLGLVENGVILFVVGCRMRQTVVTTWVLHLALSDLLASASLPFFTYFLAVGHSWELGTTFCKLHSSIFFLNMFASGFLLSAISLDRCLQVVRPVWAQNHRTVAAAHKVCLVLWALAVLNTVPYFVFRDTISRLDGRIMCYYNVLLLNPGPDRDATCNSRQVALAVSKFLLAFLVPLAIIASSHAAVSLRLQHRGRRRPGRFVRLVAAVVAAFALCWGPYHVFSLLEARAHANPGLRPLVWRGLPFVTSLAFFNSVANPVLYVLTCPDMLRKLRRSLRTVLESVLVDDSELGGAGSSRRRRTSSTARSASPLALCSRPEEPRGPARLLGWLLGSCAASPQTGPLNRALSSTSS

[2] = molecular target: T2, Prostaglandin D2 receptor 2 (Homo sapiens) (UniProt Q9Y5Y4); conditions: CHO.K1
T2 sequence (whole entry): T1 sequence (Q9Y5Y4 whole entry)
Description: Antagonist activity at CRTh2 (unknown origin) stably expressed in PGD2-stimulated CHO.K1 cells assessed as dissociation half-life at 10 times IC50 after 1 hr preincubation by radio-labelled [35S]-GTPgammaS binding assay

[3] = molecular target: T2, Prostaglandin D2 receptor 2 (Homo sapiens); assay: Antagonist activity at CRTh2 (unknown origin) stably expressed in PGD2-stimulated CHO.K1 cells assessed as dissociation half-life at 10 times IC50 after 1 hr preincubation measured at 28 hrs after washout by radio-labelled [35S]-GTPgammaS binding assay; type: functional, cell-based

IC50 ([1]; read-out: IC50) | T1/2 [2] | IC50 ([1]; cho.k1) | T1/2 [3] | Compound
10 nM | 1.2 h |  |  | Cc1ccc2c(CC(=O)O)cn(-c3ccc(F)cc3Cc3c(C)cnn3C)c2n1
30 nM | 1.2 h |  |  | Cc1ccc(-n2cc(CC(=O)O)c3ccc(C)nc32)c(Cn2ccnc2-c2ccccc2)c1
2600 nM |  |  |  | O=C(O)Cn1cc(-c2ccc(C(F)(F)F)cc2Cc2ocnc2C2CC2)c2cc(F)ccc21
1400 nM |  |  |  | Cc1ccc2c(CC(=O)O)cn(-c3ccc(Cl)cc3Cc3cncnc3)c2n1
3 nM | 14 h |  |  | Cc1ccc2c(CC(=O)O)cc(-c3ccc(C(F)(F)F)cc3Cc3c(C)noc3C3CC3)n2n1
6 nM | 18 h |  |  | Cc1noc(C)c1-c1cccc(-c2c(C)n(CC(=O)O)c3ccc(F)cc23)c1
23 nM | 25 h |  |  | Cc1noc(C2CC2)c1Cc1cc(C(F)(F)F)ccc1-c1cn(CC(=O)O)c2ccc(C(F)(F)F)nc12
1000 nM |  |  |  | Cc1ccc(-n2cc(CC(=O)O)c3ccc(C)nc32)c(Cc2ccnn2Cc2ccccc2)c1
37 nM | 8 h |  |  | Cc1noc(C2CC2)c1Cc1cc(C(F)(F)F)ccc1-c1cn(CC(=O)O)c2ccc(F)cc12
 |  | Not Active |  | Cc1ccc2c(CC(=O)O)cn(-c3ccccc3Cn3nc(C)nc3C)c2n1
2 nM | 6 h |  |  | Cc1ccc2c(CC(=O)O)cn(-c3ccc(F)cc3Cc3c(C)noc3C3CC3)c2n1
27 nM | 1.5 h |  |  | COc1ccc(CC(=O)O)cc1-c1ccc(C(F)(F)F)cc1Cn1c(C)nnc1C1CC1
8 nM | 11 h |  |  | CCN(Cc1cc(C(=O)NCCc2ccccc2)ccc1-n1cc(CC(=O)O)c2ccc(C)nc21)C(=O)C1CC1
6 nM | 20 h |  |  | Cc1nnc(C2CC2)n1Cc1cc(C(F)(F)F)ccc1-c1cn(CC(=O)O)c2ccc(F)cc12
5 nM | 5 h |  |  | Cc1ccc2c(n1)c(-c1ccc(C(F)(F)F)cc1Cc1c(C)noc1C)cn2CC(=O)O
56 nM | 20 h |  |  | Cc1ccc2c(CC(=O)O)cn(-c3ccc(Cl)cc3Cn3c(C)nnc3C3CC3)c2n1
16 nM | 9 h |  |  | Cc1ccc(-n2cc(CC(=O)O)c3ccc(C)nc32)c(Cn2c(C)nnc2C)c1
250 nM |  |  |  | Cc1ccc(-n2cc(CC(=O)O)c3ccc(C)nc32)c(Cn2ccnc2C)c1
10 nM | 6 h |  |  | CCN(Cc1cc(C(F)(F)F)ccc1-n1cc(CC(=O)O)c2ccc(C)nc21)C(C)=O
11 nM | 26 h |  |  | Cc1ccc2c(CC(=O)O)cn(-c3ccc(Cl)cc3Cn3c(C)nnc3Cc3ccccc3)c2n1
14 nM | 2 h |  |  | CCN(Cc1cc(C(F)(F)F)ccc1-c1cc(CC(=O)O)ccc1OC)C(=O)C1CC1
9 nM | 26 h |  |  | Cc1ccc2c(CC(=O)O)cn(-c3ccc(Cl)cc3Cn3c(C)nnc3CCc3ccccc3)c2n1
6 nM | 22 h |  |  | Cc1ccc2c(CC(=O)O)cn(-c3ccc(Cl)cc3Cc3c(C4CC4)noc3C3CC3)c2n1

IC50 ([1]; read-out: IC50) | T1/2 [2] | IC50 ([1]; cho.k1) | T1/2 [3] | Compound
20 nM | 10 h |  |  | Cc1noc(C)c1Cc1cc(C(F)(F)F)ccc1-c1cn(CC(=O)O)c2ccc(F)cc12
 |  | Not Active |  | Cc1cn(Cc2ccccc2-n2cc(CC(=O)O)c3ccc(C)nc32)c(C)n1
2 nM | 3 h |  |  | Cc1ccc2c(CC(=O)O)cn(-c3ccc(F)cc3Cc3c(C)noc3C)c2n1
1 nM | 13 h |  |  | Cc1ccc2c(CC(=O)O)cn(-c3ccc(C(F)(F)F)cc3Cc3c(C)noc3C3CC3)c2n1
580 nM |  |  |  | Cc1ccc2c(CC(=O)O)cn(-c3ccccc3Cn3ccnc3)c2n1
7 nM | 20 h |  |  | Cc1ccc(-n2cc(CC(=O)O)c3ccc(Cc4ccccc4)nc32)c(Cn2c(C)nnc2C)c1
 |  | Not Active |  | COc1ccc(CC(=O)O)cc1-c1ccc(C(F)(F)F)cc1Cn1ccccc1=O
37 nM | 27 h |  |  | Cc1noc(C2CC2)c1Cc1cc(F)ccc1-c1cn(CC(=O)O)c2ccc(C(F)(F)F)cc12
 |  | Not Active |  | Cc1ccc2c(CC(=O)O)cn(-c3ccc(Cl)cc3Cc3cc(C)nn3C)c2n1
9 nM | 16 h |  |  | Cc1nnc(C2CC2)n1Cc1cc(C(F)(F)F)ccc1-n1cc(CC(=O)O)c2ccc(F)cc21
 |  | Not Active |  | Cc1ccc2c(CC(=O)O)cn(-c3ccc(C(F)(F)F)cc3CSC(C)(C)C)c2n1
170 nM |  |  |  | Cc1ccc2c(CC(=O)O)cn(-c3ccc(Cl)cc3Cc3cncnc3C(C)C)c2n1
7 nM |  |  | 42 h | Cc1noc(C2CC2)c1Cc1cc(Cl)ccc1-n1cc(CC(=O)O)c2ccc(Cc3ccccc3)nc21
51 nM | 0.6 h |  |  | CCCc1nc2ccccc2n1Cc1ccccc1-n1cc(CC(=O)O)c2ccc(C)nc21
3 nM | 23 h |  |  | Cc1ccc2c(CC(=O)O)cn(-c3ccc(C(F)(F)F)cc3Cc3c(C4CC4)noc3C3CC3)c2n1
4 nM | 10 h |  |  | Cc1ccc(-n2cc(CC(=O)O)c3ccc(C)nc32)c(Cc2c(C)cnn2CC2CC2)c1
5 nM | 12 h |  |  | Cc1ccn2c(CC(=O)O)cc(-c3ccc(C(F)(F)F)cc3Cc3c(C)noc3C3CC3)c2n1
4 nM | 1.7 h |  |  | Cc1c(-c2cccc3c2CCN(S(C)(=O)=O)C3)c2cc(F)ccc2n1CC(=O)O
3 nM |  |  | 45 h | Cc1ccc2c(CC(=O)O)cn(-c3ccc(Cl)cc3Cc3c(C)noc3Cc3ccccc3)c2n1
1800 nM |  |  |  | Cc1ccc2c(CC(=O)O)cn(-c3ccccc3Cn3ccnn3)c2n1
150 nM |  |  |  | Cc1ccc(-n2cc(CC(=O)O)c3ccc(C)nc32)c(Cn2nncc2C)c1
64 nM | 2.5 h |  |  | Cc1cnn(C)c1Cc1cc(C(F)(F)F)ccc1-c1cn(CC(=O)O)c2ccc(F)cc12
